We go through 17 compounds from PubChem BioAssay AID330 (DTP/NCI, 2004).

The assay relates to P388 leukemia ip, CD2F1 mice, survival T/C. Nature of the assay: NCI In Vivo Anticancer Drug Screen. Data for tumor model P388 Leukemia (intraperitoneal) in CD2F1 (CDF1) mice. The note with it: endpoint: median survival time, higher = longer survival. Put shortly: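 Mice carrying the transplanted tumor received test compound or vehicle. Survival was recorded in each group, and the value is the treated-group measurement divided by that of the vehicle-treated control group.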

Where [1] appears, read: dose: 7.5 mg/kg/injection, schedule: Q01DX005 (ip), vehicle: saline with Tween-80.
Where [2] appears, read: dose: 15.0 mg/kg/injection, schedule: Q01DX005 (ip), vehicle: saline with Tween-80.
The mark [3] stands for this setting: dose: 30.0 mg/kg/injection, schedule: Q01DX005 (ip), vehicle: saline with Tween-80.
[4] abbreviates: dose: 60.0 mg/kg/injection, schedule: Q01DX005 (ip), vehicle: saline with Tween-80.
The mark [5] stands for this setting: dose: 120.0 mg/kg/injection, schedule: Q01DX005 (ip), vehicle: saline with Tween-80.
[6] abbreviates: dose: 240.0 mg/kg/injection, schedule: Q01DX005 (ip), vehicle: saline with Tween-80.
Setting [7] is: dose: 50.0 mg/kg/injection, schedule: Q01DX005 (ip), vehicle: saline with Tween-80.

Values joined by “and” are separate entries in the source; they are usually repeats but may differ in a detail not shown here. Identical values can stand only once. Inconclusive results and toxic doses are left out.

`O=S(=O)(O)CNc1ccc(Br)cc1`: the T/C is 99 % of control (dose: 100.0 mg/kg/injection, schedule: Q04DX003 (ip), vehicle: saline); 99 % of control (dose: 200.0 mg/kg/injection, schedule: Q04DX003 (ip), vehicle: saline); 89 % of control (dose: 400.0 mg/kg/injection, schedule: Q04DX003 (ip), vehicle: saline).
Turning to `CC(C)(C)C1=CC(=CC=C2C=CN(CCO)C=C2)C=C(C(C)(C)C)C1=O`, the T/C by setting is: under setting [1], 105 % of control; under setting [2], 98 % of control; under setting [3], 104 % of control.
Regarding `COC1OC2COC(c3ccccc3)OC2C(O)C1O` (configuration not stated), the T/C (dose: 50.0 mg/kg/injection, schedule: Q01DX009 (ip), vehicle: saline with Tween-80) is 100 % of control; the T/C (dose: 100.0 mg/kg/injection, schedule: Q01DX009 (ip), vehicle: saline with Tween-80) is 107 % of control; the T/C (dose: 200.0 mg/kg/injection, schedule: Q01DX009 (ip), vehicle: saline with Tween-80) is 105 % of control; the T/C (dose: 400.0 mg/kg/injection, schedule: Q01DX009 (ip), vehicle: saline with Tween-80) was 107 % of control.
In the case of `O=C1c2ccccc2-c2nc3ncccc3cc21`, the T/C is 98 % of control (dose: 100.0 mg/kg/injection, schedule: Q04DX003 (ip), vehicle: saline with Tween-80); 102 % of control (dose: 200.0 mg/kg/injection, schedule: Q04DX003 (ip), vehicle: saline with Tween-80); 102 % of control (dose: 400.0 mg/kg/injection, schedule: Q04DX003 (ip), vehicle: saline with Tween-80).
As for `c1ccc(-c2cn3ccccc3n2)cc1`, the T/C was 98 % of control (dose: 50.0 mg/kg/injection, schedule: Q01DX009 (ip), vehicle: Klucel (hydroxypropylcellulose) (HPC)); 108 % of control (dose: 100.0 mg/kg/injection, schedule: Q01DX009 (ip), vehicle: Klucel (hydroxypropylcellulose) (HPC)); 117 % of control (dose: 200.0 mg/kg/injection, schedule: Q01DX009 (ip), vehicle: Klucel (hydroxypropylcellulose) (HPC)).
For the compound `COC(=O)C1(CC(=O)c2ccccn2)NC(=S)NC(=O)C1C#N` (configuration not stated), the T/C under setting [4] is 100 % of control, the T/C under setting [5] was 97 % of control and the T/C under setting [6] is 97 % of control.
On to `O=C(Cl)CCc1cc(Cl)no1`, for which the T/C (dose: 3.13 mg/kg/injection, schedule: Q04DX003 (ip), vehicle: other) is 109 % of control; the T/C (dose: 6.25 mg/kg/injection, schedule: Q04DX003 (ip), vehicle: other) was 97 % of control; the T/C (dose: 12.5 mg/kg/injection, schedule: Q04DX003 (ip), vehicle: other) was 100 % of control; the T/C (dose: 25.0 mg/kg/injection, schedule: Q04DX003 (ip), vehicle: other) was 103 % of control; the T/C (dose: 50.0 mg/kg/injection, schedule: Q04DX003 (ip), vehicle: other) is 107 % of control; the T/C (dose: 100.0 mg/kg/injection, schedule: Q04DX003 (ip), vehicle: other) is 107 % of control. Further, the T/C (dose: 200.0 mg/kg/injection, schedule: Q04DX003 (ip), vehicle: other) was 100 % of control.
On to `CN(C)CCN(C)C(=N)N`, for which the T/C (dose: 25.0 mg/kg/injection, schedule: Q01DX009 (ip), vehicle: saline) is 100 % of control and 105 % of control; the T/C (dose: 50.0 mg/kg/injection, schedule: Q01DX009 (ip), vehicle: saline) was 104 % of control; the T/C (dose: 100.0 mg/kg/injection, schedule: Q01DX009 (ip), vehicle: saline) is 91 % of control and 96 % of control; the T/C (dose: 200.0 mg/kg/injection, schedule: Q01DX009 (ip), vehicle: saline) was 88 % of control and 94 % of control.
Regarding `COc1cccc(N2N=NCC2O)c1` (configuration not stated), the T/C is 104 % of control under setting [4], 102 % of control under setting [5] and 104 % of control under setting [6].
As to `CO[C@@H]1C2=CC=CC=C[C@H]2n2c(=O)n(C)c(=O)n21`, the T/C is, setting by setting: (dose: 50.0 mg/kg/injection, schedule: Q01DX005 (ip), vehicle: Klucel (hydroxypropylcellulose) (HPC)) 100 % of control; (dose: 75.0 mg/kg/injection, schedule: Q01DX005 (ip), vehicle: other) 109 % of control; (dose: 100.0 mg/kg/injection, schedule: Q01DX005 (ip), vehicle: Klucel (hydroxypropylcellulose) (HPC)) 98 % of control; (dose: 150.0 mg/kg/injection, schedule: Q01DX005 (ip), vehicle: other) 115 % of control; (dose: 200.0 mg/kg/injection, schedule: Q01DX005 (ip), vehicle: Klucel (hydroxypropylcellulose) (HPC)) 102 % of control; (dose: 300.0 mg/kg/injection, schedule: Q01DX005 (ip), vehicle: other) 111 % of control.
As for `Cc1c(-c2ccccc2)oc(=O)c(Cl)c1N(C)c1ccccc1`, the T/C is, setting by setting: (dose: 100.0 mg/kg/injection, schedule: Q01DX001 (ip), vehicle: saline with Tween-80) 94 % of control; (dose: 200.0 mg/kg/injection, schedule: Q01DX001 (ip), vehicle: saline with Tween-80) 99 % of control; (dose: 400.0 mg/kg/injection, schedule: Q01DX001 (ip), vehicle: saline with Tween-80) 91 % of control.
Consider `c1ccc2nc(N=Nc3cnc4ccccc4n3)cnc2c1`, for which the T/C is 100 % of control and 93 % of control and 94 % of control (dose: 12.5 mg/kg/injection, schedule: Q01DX001 (ip), vehicle: saline with Tween-80); 94 % of control (dose: 12.5 mg/kg/injection, schedule: Q01DX005 (ip), vehicle: saline with Tween-80); 99 % of control and 94 % of control (dose: 25.0 mg/kg/injection, schedule: Q01DX001 (ip), vehicle: saline with Tween-80); 94 % of control (dose: 25.0 mg/kg/injection, schedule: Q01DX005 (ip), vehicle: saline with Tween-80); 100 % of control and 86 % of control and 97 % of control (dose: 50.0 mg/kg/injection, schedule: Q01DX001 (ip), vehicle: saline with Tween-80); 97 % of control under setting [7].
Turning to `Cc1cc(C)nc(NS(=O)(=O)c2ccc(NC(=S)Nc3ccccc3)cc2)n1`, the T/C was 96 % of control under setting [7]; 90 % of control (dose: 100.0 mg/kg/injection, schedule: Q01DX005 (ip), vehicle: saline with Tween-80); 91 % of control (dose: 200.0 mg/kg/injection, schedule: Q01DX005 (ip), vehicle: saline with Tween-80).
Consider `Cc1ccc([Se]CCBr)cc1`, for which the T/C (dose: 25.0 mg/kg/injection, schedule: Q01DX001 (ip), vehicle: saline) was 108 % of control; the T/C (dose: 50.0 mg/kg/injection, schedule: Q01DX001 (ip), vehicle: saline) is 101 % of control; the T/C (dose: 100.0 mg/kg/injection, schedule: Q01DX001 (ip), vehicle: saline) was 96 % of control.
`CC(=O)OCC1OC(n2cnc3c(=S)nc(N)[nH]c32)CC1OC(C)=O` (configuration not stated): the T/C is 102 % of control (dose: 1.25 mg/kg/injection, schedule: Q04DX003 (ip), vehicle: saline with Tween-80); 106 % of control (dose: 2.5 mg/kg/injection, schedule: Q04DX003 (ip), vehicle: saline with Tween-80); 113 % of control and 123 % of control (dose: 5.0 mg/kg/injection, schedule: Q04DX003 (ip), vehicle: saline with Tween-80); 156 % of control and 158 % of control and 159 % of control (dose: 20.0 mg/kg/injection, schedule: Q04DX003 (ip), vehicle: saline with Tween-80); 174 % of control (dose: 30.0 mg/kg/injection, schedule: Q04DX003 (ip), vehicle: saline with Tween-80).
In the case of `OCC1=CCN2CC[C@@H](O)[C@@H]12`, the T/C (dose: 50.0 mg/kg/injection, schedule: Q01DX005 (ip), vehicle: saline) is 93 % of control; the T/C (dose: 100.0 mg/kg/injection, schedule: Q01DX005 (ip), vehicle: saline) was 107 % of control; the T/C (dose: 200.0 mg/kg/injection, schedule: Q01DX005 (ip), vehicle: saline) was 93 % of control.
As for `O=C1CC[C@@H](NC(=O)Cc2ccccc2)C(=O)N1`, the T/C is 103 % of control under setting [1]; 97 % of control under setting [2]; 98 % of control and 101 % of control under setting [3]; 102 % of control (dose: 31.25 mg/kg/injection, schedule: Q01DX005 (ip), vehicle: saline with Tween-80); 94 % of control and 96 % of control under setting [4]; 101 % of control (dose: 62.5 mg/kg/injection, schedule: Q01DX005 (ip), vehicle: saline with Tween-80). Besides, the T/C under setting [5] is 88 % of control; the T/C (dose: 125.0 mg/kg/injection, schedule: Q01DX005 (ip), vehicle: saline with Tween-80) is 99 % of control and 93 % of control; the T/C (dose: 250.0 mg/kg/injection, schedule: Q01DX005 (ip), vehicle: saline with Tween-80) was 90 % of control; the T/C (dose: 500.0 mg/kg/injection, schedule: Q01DX005 (ip), vehicle: saline with Tween-80) is 89 % of control.
